Assay results: DBAASP
Converted amounts (≈) assume the structure as drawn.

What was measured:
Test in all cases: ≥ marks a high value that may be exact or a test limit, other limits are often not marked, values filed in µg/mL are converted to µM
[1] = test system: Pseudomonas aeruginosa H1001
[2] = test system: Staphylococcus aureus ATCC 6538
[3] = test system: Escherichia coli DH5alpha
[4] = test system: Staphylococcus epidermidis ATCC 12228
[5] = test system: Micrococcus luteus ATCC 4698
[6] = test system: Klebsiella pneumoniae ATCC 10031
[7] = test system: Bacillus subtilis ATCC 6633
[8] = test system: Salmonella enterica subsp. enterica serovar Typhimurium ATCC 14028
[9] = test system: Micrococcus luteus ATCC 10240
[10] = test system: Escherichia coli ATCC 25922
[11] = test system: Staphylococcus aureus ATCC 6538P
[12] = test system: Pseudomonas aeruginosa ATCC 27853
[13] = test system: Shigella dysenteriae ATCC 9752
Escherichia coli W160-37 = test system: Escherichia coli W160-37

## CC[C@H](C)[C@H](NC(=O)[C@H](C)N)C(=O)N[C@@H](CCCCN)C(=O)N[C@@H](CC(C)C)C(=O)N[C@@H](CC(C)C)C(=O)N[C@@H](CS)C(=O)N[C@@H](CCCN=C(N)N)C(=O)N[C@H](C(=O)N[C@@H](Cc1cnc[nH]1)C(=O)N[C@@H](CCCCN)C(=O)O)C(C)C [AIKLLCRVHK]
[1]
  MIC: ≥ 42.4 µM

## CC[C@H](C)[C@H](NC(=O)[C@H](C)NC(=O)[C@@H](NC(=O)[C@H](CCCCN)NC(=O)[C@H](CCCCN)NC(=O)[C@H](Cc1cnc[nH]1)NC(=O)[C@@H](NC(=O)[C@H](CCCN=C(N)N)NC(=O)[C@@H](N)CS)C(C)C)[C@@H](C)CC)C(=O)N[C@@H](CO)C(=O)O [CRVHKKIAIS]
[1]
  MIC: ≥ 173 µM

## CC(C)C[C@H](NC(=O)[C@H](CC(C)C)NC(=O)[C@H](CCCCN)NC(=O)[C@H](CO)NC(=O)[C@H](CC(C)C)NC(=O)[C@H](C)NC(=O)[C@H](CCCCN)NC(=O)[C@H](C)NC(=O)[C@H](CC(C)C)NC(=O)[C@H](C)NC(=O)CNC(=O)[C@H](CC(C)C)NC(=O)[C@@H](N)Cc1ccccc1)C(=O)O [FLGALAKALSKLL]
[2]
  MIC: 20.8 µM (≈ 28 µg/mL)
[3]
  MIC: ≥ 74.4 µM
[4]
  MIC: 35.7 µM (≈ 48 µg/mL)
[5]
  MIC: 11.9 µM (≈ 16 µg/mL)

## CC(C)C[C@H](NC(=O)[C@@H](NC(=O)[C@H](CCCCN)NC(=O)[C@H](CO)NC(=O)[C@H](CC(C)C)NC(=O)[C@H](C)NC(=O)[C@H](CCCCN)NC(=O)[C@H](Cc1ccccc1)NC(=O)[C@H](CC(C)C)NC(=O)[C@H](C)NC(=O)CNC(=O)[C@H](CC(C)C)NC(=O)[C@@H](N)Cc1ccccc1)C(C)C)C(=O)O [FLGALFKALSKVL]
[2]
  MIC: 9.24 µM (≈ 13 µg/mL)
[3]
  MIC: 28.4 µM (≈ 40 µg/mL)
[4]
  MIC: 11.4 µM (≈ 16 µg/mL)
[5]
  MIC: 5.69 µM (≈ 8 µg/mL)

## CC(C)C[C@H](NC(=O)[C@H](Cc1c[nH]c2ccccc12)NC(=O)CNC(=O)[C@H](CC(C)C)NC(=O)[C@@H](N)Cc1ccccc1)C(=O)N[C@@H](Cc1ccccc1)C(=O)N[C@@H](CCCCN)C(=O)N[C@@H](Cc1c[nH]c2ccccc12)C(=O)N[C@@H](C)C(=O)N[C@@H](CCCCN)C(=O)N[C@@H](CCCCN)C(N)=O [FLGWLFKWAKK]
[6]
  MIC: 8.78 µM (≈ 12.5 µg/mL)
[7]
  MIC: 4.42 µM (≈ 6.3 µg/mL)
[8]
  MIC: 35.1 µM (≈ 50 µg/mL)
[9]
  MIC: 2.18 µM (≈ 3.1 µg/mL)
[10]
  MIC: 8.78 µM (≈ 12.5 µg/mL)
[11]
  MIC: 8.78 µM (≈ 12.5 µg/mL)
[12]
  MIC: 17.6 µM (≈ 25 µg/mL)
[4]
  MIC: 4.42 µM (≈ 6.3 µg/mL)
[13]
  MIC: 17.6 µM (≈ 25 µg/mL)

## CC[C@H](C)[C@H](NC(=O)[C@H](CCCCN)NC(=O)[C@H](CCCN=C(N)N)NC(=O)[C@@H]1CCCN1C(=O)[C@@H](NC(=O)[C@H](CC(C)C)NC(=O)[C@H](CC(C)C)NC(=O)[C@H](CC(C)C)NC(=O)[C@@H](N)Cc1ccccc1)[C@@H](C)CC)C(=O)N[C@H](C(=O)N[C@H](C(=O)N[C@@H](C)C(=O)N[C@@H](CC(C)C)C(N)=O)[C@@H](C)O)C(C)C [FLLLIPRKIVTAL]
Escherichia coli W160-37
  MIC: ≥ 93.5 µM

## CC(C)C[C@H](NC(=O)[C@@H](N)Cc1ccccc1)C(=O)N1CCC[C@H]1C(=O)N[C@@H](CCCCN)C(=O)N[C@@H](CCCCN)C(=O)N[C@@H](Cc1ccccc1)C(=O)N[C@@H](CCCN=C(N)N)C(=O)N[C@@H](Cc1c[nH]c2ccccc12)C(=O)N[C@@H](Cc1c[nH]c2ccccc12)C(=O)N[C@@H](CCCCN)C(=O)N[C@@H](Cc1ccc(O)cc1)C(=O)N[C@@H](CCCN=C(N)N)C(=O)N[C@@H](CCCCN)C(N)=O [FLPKKFRWWKYRK]
[1]
  MIC: 8.5 µM (≈ 16 µg/mL)
